Values quoted from earlier work as cited in patent US20160220687A1, “METALLOPROTEINASE-CLEAVABLE ALPHA-AMANITIN-DENDRIMER CONJUGATES AND METHOD OF TREATING CANCER” (priority 2015, published 2016).

How the values were obtained:
advanced gastric cancer = details: patients with advanced gastric cancer, compared to placebo
liver and kidney = details: intravenous or intraperitoneal administration
B16F10 melanoma cells = details: mice injected with B16F10 melanoma cells

N#Cc1ccc(C(c2ccc(C#N)cc2)n2cncn2)cc1 [Letrozole]
MMP2 and MMP9 levels (MCF7 breast cancer cells): efficient reduction

CNC(=O)[C@@H](NC(=O)[C@H](CC(C)C)[C@H](O)C(=O)NO)C(C)(C)C [Marimastat]
disease free survival (advanced gastric cancer): significant improvement
overall survival (advanced gastric cancer): significant improvement

CC[C@H](C)[C@@H]1NC(=O)CNC(=O)[C@@H]2Cc3c([nH]c4cc(O)ccc34)[S@+]([O-])C[C@H](NC(=O)CNC1=O)C(=O)N[C@@H](CC(N)=O)C(=O)N1C[C@H](O)C[C@H]1C(=O)N[C@@H]([C@@H](C)[C@@H](O)CO)C(=O)N2 [alpha-amanitin]
pathological effects on the liver and kidney (liver and kidney): serious pathological effects on the liver and kidney

TIMP1: an inhibitor of MMP9
number of pulmonary metastases (B16F10 melanoma cells): reduced
